This is an account of results in ChEMBL document CHEMBL1158947, “Novel Bishomoscalarane Sesterterpenes from the Sponge Phyllospongia foliascens” (J Nat Prod, 1991).

Converted amounts (≈) assume the structure as drawn. The source made the active and inactive calls. No cut-off for these calls is given here.

The test system of this assay is P388. The assay is described as follows: Cytotoxicity against mouse P388 cells. The class given is functional, cell-based.

For the compound `CC[C@@]1(C)CCC[C@]2(C)[C@H]3CC(=O)[C@]4(C)[C@H]5C(=O)O[C@@H](C)[C@@H]5[C@@H](O)C[C@H]4[C@]3(C)CC[C@@H]12`, the result was inactive.
As to `CC[C@@]1(C)CCC[C@]2(C)[C@H]3C[C@H](O)[C@]4(C)[C@H]5C=CC(=O)C5=CC[C@H]4[C@]3(C)CC[C@@H]12` [PHYLLOFENONE B], the concentration for half-maximal inhibition (IC50) amounted to 5 µg/mL (≈ 12.6 µM).
On to `CC[C@@]1(C)CCC[C@]2(C)[C@H]3C[C@H](O)[C@]4(C)C5=C(CC[C@H]4[C@]3(C)CC[C@@H]12)[C@H](C)OC5=O`, for which the result was inactive.
